Results published in publication PMC8010047, “New insights into the molecular mechanism behind mannitol and erythritol fructosylation by β-fructofuranosidase from Schwanniomyces occidentalis” (Scientific Reports, 2021).

Tests used:
[1] = target: T1, β-fructofuranosidase from Schwanniomyces occidentalis (Ffase) (Schwanniomyces occidentalis, UniProt E5D0X5, D50A); test: X-ray crystallography; assay type: binding; conditions: crystals incubated with fructosyl-mannitol, sucrose from traces in the product; deglycosylated inactive mutant; active site subsites -1/+1; paper deposits 6S2B and 6S1T without assigning them
T1 construct: expressed in Saccharomyces cerevisiae (SUC2-disrupted), secreted, DEAE-purified; homodimer of 160 kDa, 535 residues per subunit; GH32; deglycosylated for crystals

[2] = target: T1, β-fructofuranosidase from Schwanniomyces occidentalis (Ffase); test: X-ray crystallography (soaking); assay type: binding

T1 sequence (E5D0X5 entry or part of it D50A): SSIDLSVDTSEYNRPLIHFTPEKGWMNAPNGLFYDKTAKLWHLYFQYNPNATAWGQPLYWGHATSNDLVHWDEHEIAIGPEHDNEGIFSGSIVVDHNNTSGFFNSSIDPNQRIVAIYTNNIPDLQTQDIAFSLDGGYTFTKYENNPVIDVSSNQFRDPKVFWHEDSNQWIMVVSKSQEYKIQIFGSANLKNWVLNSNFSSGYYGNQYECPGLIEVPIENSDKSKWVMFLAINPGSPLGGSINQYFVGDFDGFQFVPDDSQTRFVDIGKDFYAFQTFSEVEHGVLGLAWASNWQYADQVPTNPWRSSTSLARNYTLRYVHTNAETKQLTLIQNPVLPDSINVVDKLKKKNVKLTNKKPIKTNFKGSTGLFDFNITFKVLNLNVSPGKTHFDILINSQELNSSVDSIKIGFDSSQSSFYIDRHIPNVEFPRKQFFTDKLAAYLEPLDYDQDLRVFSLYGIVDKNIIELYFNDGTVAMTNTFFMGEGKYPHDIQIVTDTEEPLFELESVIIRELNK

## OC[C@H]1O[C@@](CO)(O[C@H]2O[C@H](CO)[C@@H](O)[C@H](O)[C@H]2O)[C@@H](O)[C@@H]1O [sucrose]
[1]
  X-ray crystallography: only sucrose was observed in crystals grown in the presence of fructosyl-mannitol

## OCC(O)C(O)CO[C@]1(CO)O[C@H](CO)[C@@H](O)[C@@H]1O (stereo partly drawn) [fructosyl-erythritol, 1/4-O-β-D-fructofuranosyl-D-erythritol]
[2]; 100 mM ligand soak, pH 6.0, deglycosylated inactive mutant, active site subsites -1/+1, 1.88 Å, paper deposits 6S2B and 6S1T without assigning them
  X-ray crystallography (soaking): The formation of Ffase-D50A/fructosyl-erythritol complex was clearly detected

## OC[C@@]1(O)OC[C@@H](O)[C@@H](O)[C@@H]1O [β-fructose]
[2]; soaked with β-fructose plus mannitol or erythritol, active site, structure not deposited
  X-ray crystallography (soaking): only fructose was bound at the active site in both experiments
